{"source": "paper PMC9667936", "about": "“Functional mapping of the 14-3-3 hub protein as a guide to design 14-3-3 molecular glues” (Chemical Science, 2022)", "key": {"[1]": {"target": "T1, 14-3-3γ/ChREBP (Homo sapiens, UniProt P61981+Q9NP71)", "T1 construct": "made in house; host or cells: E. coli NiCo21 (DE3) for 14-3-3 gamma; ChREBP is a synthetic peptide", "T1 sequence (P61981 1-247)": "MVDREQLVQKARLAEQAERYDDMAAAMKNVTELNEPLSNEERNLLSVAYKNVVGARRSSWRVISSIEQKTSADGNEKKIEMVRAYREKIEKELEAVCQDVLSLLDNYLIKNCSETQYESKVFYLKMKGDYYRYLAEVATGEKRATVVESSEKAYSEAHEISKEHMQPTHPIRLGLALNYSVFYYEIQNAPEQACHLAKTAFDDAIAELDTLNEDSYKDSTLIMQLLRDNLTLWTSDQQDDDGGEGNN", "T1 sequence (Q9NP71 118-142 partner limits assumed)": "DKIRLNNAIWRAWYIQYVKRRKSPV", "assay": "2D FA titration of 14-3-3/ChREBP and cooperativity analysis with thermodynamic equilibrium model", "type": "binding", "conditions": "14-3-3γ/ChREBP/2d ternary complex; 2D FA titration (20 nM FITC-2d, 0.01–10 μM ChREBP) fitted to thermodynamic equilibrium model; n = 2", "procedure": "(§1) a four-parameter logistic model (4PL). Each measurement was performed in two independent […]\n(§2) Fluorescence anisotropy (FA) - 2D-14-3-3/ChREBP titrations: 14-3-3γ was titrated in a 2-fold dilution series (starting at 300 µM 14-3-3γ) to 20 nM of fluorescein-labeled peptide 2d in FA buffer (10 mM HEPES pH 7.4, 150 mM NaCl, 0.1% (v/v) Tween20, 0.1% (w/v) BSA) in presence of 2-fold dilution series of unlabeled ChREBP peptide (0.01-10 µM). Dilution series were made in a polystyrene (non-binding) low-volume Corning Black Round Bottom 384-well plates (Corning 4514 or 4511). Measurements were performed directly after plate preparation, using a Tecan Infinite F500 plate reader at room temperature (lex: 485 ± 20 nm; lem: 535 ± 25 nm; mirror: Dichroic 510; flashes: 20; integration time: 50 ms; settle time:\n(§3) 0 ms; gain: optimal; and Z-position: calculated from well). Wells containing only FITC-peptide were used to set as G-factor at 35 mP. All data were analyzed using GraphPad Prism (7.00) for Windows and fitted using a four-parameter logistic model (4PL). […]\n(§4) with R = 14-3-3, P = non-natural peptide (labelled), and C = ChREBP. The framework determined based on this system description the equilibrium equations needed to determine KDII and α. […] From this the model determined the KDII and α (with 95% confidence interval) and the error-landscape of the determine parameters. […]"}, "[2]": {"tested_on": "14-3-3γ with partner peptides (ChREBP, ERα, SOS1, B-Raf, ERRγ, USP8, PIN1, p65)", "assay": "FA selectivity study: 14-3-3 partner peptides titrated to preformed 14-3-3γ/FITC-2d complex", "type": "binding, human", "conditions": "partner peptides titrated (from 100 μM) to 2 μM 14-3-3γ and 20 nM FITC-2d; n = 2", "procedure": "as §1, §2, §3, §4"}}, "note": "Where a SMILES comes first, the peptide text is derived from it. [ ]: non-standard residue; d: D form. The star is where a group is joined. FITC = O=C1OC2(c3ccc(O)cc3Oc3cc(O)ccc32)c2ccc(NC(=S)*)cc21; Phe(4-NO2) = N[C@@H](Cc1ccc([N+](=O)[O-])cc1)C(=O)O; pS = N[C@@H](COP(=O)(O)O)C(=O)O; β3hS = N[C@@H](CO)CC(=O)O; βAla = NCCC(=O)O", "data": [{"molecule": "C[C@H](NC(=O)[C@H](CCCCN)NC(=O)[C@H](Cc1ccc([N+](=O)[O-])cc1)NC(=O)CCNC(=O)C[C@H](CO)NC(=O)[C@H](Cc1ccc([N+](=O)[O-])cc1)NC(=O)[C@@H](N)COP(=O)(O)O)C(=O)N[C@@H](CCCCNC(=S)Nc1ccc2c(c1)C(=O)OC21c2ccc(O)cc2Oc2cc(O)ccc21)C(N)=O", "note": "[2d] (H-[pS][Phe(4-NO2)][β3hS][βAla][Phe(4-NO2)]KAK(FITC)-NH2)", "values": [{"measurement": "cooperativity factor α", "setting": "[1]", "result": 36}, {"measurement": "selectivity of ternary complex formation over a panel of 14-3-3 partner peptides", "setting": "[2]", "result": "highly selective ternary complex formation"}]}]}
